target: E3 ubiquitin-protein ligase CBL-B (Homo sapiens, UniProt Q13191); assay: Inhibition of Cbl-b (unknown origin) assessed as reduction in LCK ubiquitination preincubated for 60 mins followed by kinase mix addition measured after 90 mins by TR-FRET assay
Sequence (Q13191 whole entry): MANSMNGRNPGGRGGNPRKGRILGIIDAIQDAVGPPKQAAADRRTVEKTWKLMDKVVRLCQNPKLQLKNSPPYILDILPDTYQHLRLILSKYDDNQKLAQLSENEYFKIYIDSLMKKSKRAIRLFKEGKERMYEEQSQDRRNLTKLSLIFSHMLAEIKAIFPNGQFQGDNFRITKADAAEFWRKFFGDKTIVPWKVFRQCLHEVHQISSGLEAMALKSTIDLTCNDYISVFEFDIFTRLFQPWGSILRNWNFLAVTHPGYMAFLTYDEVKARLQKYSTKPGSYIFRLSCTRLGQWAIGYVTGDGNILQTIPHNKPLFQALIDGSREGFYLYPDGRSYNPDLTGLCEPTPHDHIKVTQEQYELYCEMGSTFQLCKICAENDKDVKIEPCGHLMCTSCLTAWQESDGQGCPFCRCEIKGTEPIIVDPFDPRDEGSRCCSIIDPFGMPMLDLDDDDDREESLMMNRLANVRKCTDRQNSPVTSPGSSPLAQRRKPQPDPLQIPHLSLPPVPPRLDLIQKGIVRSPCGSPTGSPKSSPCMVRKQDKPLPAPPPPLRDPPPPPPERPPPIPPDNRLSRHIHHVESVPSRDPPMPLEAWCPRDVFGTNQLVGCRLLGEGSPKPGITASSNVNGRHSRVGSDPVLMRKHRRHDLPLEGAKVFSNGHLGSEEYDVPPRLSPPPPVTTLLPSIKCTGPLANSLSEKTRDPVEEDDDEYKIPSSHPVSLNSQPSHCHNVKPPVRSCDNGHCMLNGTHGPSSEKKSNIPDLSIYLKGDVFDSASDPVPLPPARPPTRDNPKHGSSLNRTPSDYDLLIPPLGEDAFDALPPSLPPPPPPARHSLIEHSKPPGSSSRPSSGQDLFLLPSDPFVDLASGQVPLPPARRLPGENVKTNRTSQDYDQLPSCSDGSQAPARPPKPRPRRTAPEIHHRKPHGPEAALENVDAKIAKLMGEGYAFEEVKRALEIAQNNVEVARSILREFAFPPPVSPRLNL

| IC50 [nM] | SMILES |
| --- | --- |
| 5.8 | C[C@@H](NC1(C)CCC1)c1cc2c(c(C(F)(F)F)c1)CN(c1cccc(C3(Cc4nncn4C)CC(F)(F)C3)c1)C2=O |
| 6.7 | C[C@@H](NC1(C)CCC1)c1cc2c(c(C(F)(F)F)c1)CN(c1cccc(C3([C@@H](F)c4nncn4C)COC3)c1)C2=O |
| 5.5 | CC(C)[C@@H]1CN(C)CCN1Cc1cc2c(c(C(F)(F)F)c1)CN(c1cc(C3(Cc4nncn4C)COC3)cc(OC3CCCC3)n1)C2=O |
